Measured values as given in publication PMC8348101, “Personal Glucose Meter for α-Glucosidase Inhibitor Screening Based on the Hydrolysis of Maltose” (Molecules, 2021).

Target: T1, α-glucosidase (Aspergillus niger, UniProt P56526)
T1 construct: gene aglA
T1 sequence (P56526 26-985): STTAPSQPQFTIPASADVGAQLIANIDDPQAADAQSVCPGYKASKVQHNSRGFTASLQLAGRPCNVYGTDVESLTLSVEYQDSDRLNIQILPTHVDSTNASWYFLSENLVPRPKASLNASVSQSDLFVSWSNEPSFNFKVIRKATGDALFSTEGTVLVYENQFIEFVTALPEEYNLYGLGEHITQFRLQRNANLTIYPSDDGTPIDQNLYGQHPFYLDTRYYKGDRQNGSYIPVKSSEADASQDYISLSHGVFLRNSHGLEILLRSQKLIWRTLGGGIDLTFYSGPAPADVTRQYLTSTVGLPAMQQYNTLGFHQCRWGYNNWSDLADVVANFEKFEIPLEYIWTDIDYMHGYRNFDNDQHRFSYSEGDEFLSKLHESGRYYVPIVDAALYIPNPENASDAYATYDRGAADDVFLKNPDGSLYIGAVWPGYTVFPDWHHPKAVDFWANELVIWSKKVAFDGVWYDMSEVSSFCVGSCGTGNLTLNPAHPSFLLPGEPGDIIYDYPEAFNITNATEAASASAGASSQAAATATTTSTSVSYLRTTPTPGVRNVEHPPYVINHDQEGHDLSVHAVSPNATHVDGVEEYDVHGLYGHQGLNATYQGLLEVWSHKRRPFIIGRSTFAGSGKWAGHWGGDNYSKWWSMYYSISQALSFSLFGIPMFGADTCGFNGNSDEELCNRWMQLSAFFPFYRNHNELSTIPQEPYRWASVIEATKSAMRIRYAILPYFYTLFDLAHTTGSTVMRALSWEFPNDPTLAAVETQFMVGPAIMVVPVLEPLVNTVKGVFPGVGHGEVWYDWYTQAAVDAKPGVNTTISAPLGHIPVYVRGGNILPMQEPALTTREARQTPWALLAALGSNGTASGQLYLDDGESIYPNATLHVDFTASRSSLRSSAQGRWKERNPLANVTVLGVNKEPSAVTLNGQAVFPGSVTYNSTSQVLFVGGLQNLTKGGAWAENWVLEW
Test: personal glucose meter assay of maltose hydrolysis, single concentration […]
Type: biochemical

Structure (SMILES)	inhibition at 5000 µM [%]
O=C(/C=C/c1ccc(O)c2c1[C@H](C(=O)O)[C@@H](c1ccc(O)c(O)c1)O2)O[C@H](Cc1ccc(O)c(O)c1)C(=O)O [lithospermic acid]	52.5 ± 3
OC[C@H]1O[C@@H](Oc2c(O)cc(O)cc2/C=C/c2ccc(O)cc2)[C@H](O)[C@@H](O)[C@@H]1O [TSG, 2,3,5,4′-tetrahydroxy stilbene-2-O-β-D-glucoside]	27 ± 2
O=Cc1ccc(O)c(O)c1 [protocatechualdehyde]	36.8 ± 2.8
